Assay results published in patent US12629348B2, “Method and composition for treating osteoarthritis” (Vireo Systems, Inc., priority 2013, dated 2026).
“Also recorded” adds a separate entry of the source.

Experiments:
PGE2 = experiment: Plasma PGE2 (PGE2 metabolite competitive EIA) in OA canines; type: in vivo, canine; conditions: 36 mg/kg/day oral
Protocol: The double-blind study was performed on a total of 30 adult canines of various breeds in five different private practice clinics. Owner consent was obtained prior to participation in the study. Each clinic was responsible for enrolling 6 canines into the study. Inclusion criteria for the study consisted of clinical assessment and radiograph confirmation of OA in at least one joint and a score of 22 or greater on the Helsinki chronic pain index (“HCPI”). Use of NSAIDs or other dietary supplements for OA were allowed, provided the current treatment regimens had not been altered for a period of at least three months. […]
In addition to the standard blood chemistry profile, blood samples taken before and at the conclusion of the two-week trial period were analyzed for PGE2 and SAA. […] Both plasma and serum samples were centrifuged at 2000×g for 10 minutes and the plasma and serum supernatants removed and frozen at […] until analyzed for PGE2 and SAA using enzyme-linked immunosorbent assays (“HA”). […] Plasma samples were analyzed for PGE2 using the bicycle PGE2 competitive EIA kit purchased from Cayman Chemical (Ann Arbor, MI). The assay converts PGE2 metabolites into a stable derivative that is measured using EIA. Samples (100 μl) were analyzed in triplicate and PGE2 concentrations determined by use of standard curve. […]

brain endothelial cells = experiment: Release of PGE2 from brain endothelial cells exposed to bacterial endotoxin; type: cell-based; conditions: FIG. 1
From the text: The brain endothelial cells were first exposed to bacterial endotoxin.

canines having OA = experiment: Double-blind randomized trial in OA canines: owner assessment of pain and mobility (Helsinki chronic pain index, HCPI); type: in vivo, canine
Protocol: The following example evaluates the effectiveness of Alpha-GEE on both pain and mobility in a double-blind randomized trial in canines having OA. […] Together these findings provide clinical evidence of the effectiveness of treatments with Alpha-GEE in reducing the pain and restricted mobility of canines with OA.
(§1) The double-blind study was performed on a total of 30 adult canines of various breeds in five different private practice clinics. Owner consent was obtained prior to participation in the study. Each clinic was responsible for enrolling 6 canines into the study. Inclusion criteria for the study consisted of clinical assessment and radiograph confirmation of OA in at least one joint and a score of 22 or greater on the Helsinki chronic pain index (“HCPI”). Use of NSAIDs or other dietary supplements for OA were allowed, provided the current treatment regimens had not been altered for a period of at least three months. A randomized block design was used with canines assigned in a one to one ratio into either placebo (36 mg/kg/day maltose-dextran; Vireo Resources, Plattsmouth, NE) or Alpha-GEE (36 mg/kg/day; Vireo Resources, Plattsmouth, NE) treatment group. The block size was six canines, corresponding to the total number of canines enrolled from each clinic. Group assignments for each canine were blinded to both the owners and attending veterinarian until all the data was collected and reported. Both Alpha-GEE and placebo were provided in 400 mg capsules and owners were instructed on the proper method for daily oral administration of capsules to their canines and provided with the appropriate number of capsules for the duration of the 2-week study. Blood samples were taken at both the start and conclusion of the two-week trial period to monitor for changes in blood chemistry as well as potential changes in inflammatory markers as described below. Owners completed the HCPI prior to starting the study, one-week after starting the study, and a final time at the conclusion of the study at two-weeks.
Statistical evaluations of pain (HCPI), mobility (pedometer readings), and inflammatory markers were performed using ANOVA and Student Newman Keuls post-hoc comparison of means.
Owner assessment of pain and mobility in canines participating in the trial were based on the HCPI. The HCPI is a method for appraisal of pain and mobility in canines. The assessment is based on owner responses to eleven questions with a numerical answer between 0-4. Scoring on the HCPI ranges from 0 to 44, with higher numbers reflecting more pain and immobility present in the canine. Canines in both placebo and treatment group had similar initial pre-trial HCPI scores. […]

[1] = Standard blood chemistry profile of OA canines for trial period; type: in vivo, canine; conditions: 36 mg/kg/day oral
Protocol: as §1
In addition to the standard blood chemistry profile, blood samples taken before and at the conclusion of the two-week trial period were analyzed for PGE2 and SAA. Blood samples were collected in heparin tubes for PGE2 and in serum collection tubes for SAA. Both plasma and serum samples were centrifuged at 2000×g for 10 minutes and the plasma and serum supernatants removed and frozen at […] until analyzed for PGE2 and SAA using enzyme-linked immunosorbent assays ([…]). Of the 30 canines enrolled, 8 were excluded from the blood analysis portion of the study due to sampling/storage issues resulting in a lack of a pre- or post-trial sample. As PGE2 is rapidly metabolized in plasma, measurement of PGE2 metabolites is the most reliable method for assessing plasma levels of PGE2. Plasma samples were analyzed for PGE2 using the bicycle PGE2 competitive EIA kit purchased from Cayman Chemical (Ann Arbor, MI). The assay converts PGE2 metabolites into a stable derivative that is measured using EIA. Samples (100 μl) were analyzed in triplicate and PGE2 concentrations determined by use of standard curve. For SAA measurements, a solid phase sandwich EIA kit (Tridelta Development Ltd, Maytooth, Co Kildare, Ireland) was used as described previously.

Creatinine, post-trial ([1]; mean ± SD after two weeks, pre-trial 1.2 ± 0.7, normal range 0.3-1.4): 1.5 ± 0.7 mg/dL | Total Protein, post-trial ([1]; mean ± SD after two weeks, pre-trial 6.6 ± 0.4, normal range 5.4-8.2): 6.5 ± 0.4 g/dL | BUN, post-trial ([1]; mean ± SD after two weeks, pre-trial 24 ± 22, normal range 7-25): 24 ± 19 mg/dL | Glucose, post-trial ([1]; mean ± SD after two weeks, pre-trial 102 ± 11, normal range 80-110): 101 ± 11 mg/dL | ALP, post-trial ([1]; mean ± SD after two weeks, pre-trial 110 ± 104, normal range 20-150): 103 ± 131 U/L | change in post-trial blood chemistry profiles compared to pre-trial values ([1]; two-week trial): no significant changes
Substance: ethyl (α-guanido-methyl) ethanoate [Alpha-GEE]
PGE2 plasma concentration, post-trial (PGE2; mean ± SD after two weeks, pre-trial 268 ± 11): 264 ± 10 pg/mL | difference between pre-trial and post-trial plasma levels of PGE2 (PGE2; two-week trial, 36 mg/kg/day): No significant differences; also recorded: no difference | reduction in the release of PGE2 from brain endothelial cells (brain endothelial cells; concentration of about 20 μM or more): ≥ 50% | reduction in the release of PGE2 from brain endothelial cells (brain endothelial cells; concentration of about 1000 μM or more): greater than 50% | reduction in HCPI score (canines having OA; after the first week, 36 mg/kg/day oral, not statistically different from placebo): 10-15% | HCPI score, post-trial value (canines having OA; after two weeks, 36 mg/kg/day oral, pre-trial value 28, scale 0 to 44): 15 | HCPI scores at the conclusion of the study versus placebo (canines having OA; two weeks, p<0.001): significantly different | magnitude of change in HCPI scores during the entire trial (mean+SD) (canines having OA; two weeks, range 2 to 20, placebo 3+4): 13+7 | ALT, post-trial ([1]; mean ± SD after two weeks, pre-trial 89 ± 99, normal range 10-118): 53 ± 37 U/L
